The structures appear in SMILES notation.

Among the data in patent US7851474B2, “Dipiperazinyl ketones and related analogues” (Neurogen Corporation, priority 2005, dated 2010) are inhibition values, retold here.

T1 sequence (Q9Y5N1 with tags, fused parts or gaps E19D): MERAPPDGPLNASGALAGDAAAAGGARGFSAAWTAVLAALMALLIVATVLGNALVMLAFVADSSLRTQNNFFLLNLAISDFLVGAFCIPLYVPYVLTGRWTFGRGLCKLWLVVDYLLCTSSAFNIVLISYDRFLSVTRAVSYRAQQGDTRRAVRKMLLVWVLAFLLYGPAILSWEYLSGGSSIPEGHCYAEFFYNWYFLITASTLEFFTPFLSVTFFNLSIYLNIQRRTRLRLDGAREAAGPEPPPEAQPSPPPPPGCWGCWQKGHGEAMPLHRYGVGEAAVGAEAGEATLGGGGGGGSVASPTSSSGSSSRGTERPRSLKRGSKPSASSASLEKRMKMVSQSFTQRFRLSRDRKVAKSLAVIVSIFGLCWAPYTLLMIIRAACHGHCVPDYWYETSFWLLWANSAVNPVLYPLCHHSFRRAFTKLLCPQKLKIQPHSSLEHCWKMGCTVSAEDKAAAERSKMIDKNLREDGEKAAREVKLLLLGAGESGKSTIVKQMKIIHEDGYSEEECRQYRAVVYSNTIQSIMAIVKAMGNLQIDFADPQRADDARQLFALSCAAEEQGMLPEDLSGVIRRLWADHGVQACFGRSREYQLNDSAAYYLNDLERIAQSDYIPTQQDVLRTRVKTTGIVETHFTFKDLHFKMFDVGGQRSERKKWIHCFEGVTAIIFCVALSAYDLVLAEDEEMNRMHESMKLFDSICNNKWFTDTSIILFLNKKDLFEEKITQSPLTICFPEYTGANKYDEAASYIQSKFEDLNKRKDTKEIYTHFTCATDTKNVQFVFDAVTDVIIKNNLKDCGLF

The test addresses T1, chimeric human H3 receptor (Homo sapiens, UniProt Q9Y5N1, E19D).
T1 construct: made in house; host or cells: Sf9 insect cells (baculovirus infection); P2 membrane preparation
The experiment in a line: Chimeric human H3 receptor screening GTP binding assay (inhibition of histamine-stimulated GTP-gamma35S binding, Example 8). The format is biochemical. The conditions noted are these: 1 h; "+" in Ki of Table II; assay of Example 8; read-out: percent inhibition of agonist-induced GTP-gammaS binding to H3. In outline:
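Sf9 membranes co-expressing the chimeric receptor and a heterotrimeric G-protein (35 μg protein) in Tris pH 7.4 buffer with 10 μM GDP; compound at 4 μM plus 1 μM histamine, 125 pM GTP-gamma35S, 60 min at room temperature. Filter-bound radioactivity read; non-specific binding defined with 10 uM GTP-gammaS; percent inhibition of histamine signal.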
Consider `O=C(CN1CCN(C(=O)c2cc(C(F)(F)F)ccc2Cl)CC1)N1CCN(C2CCC2)CC1` [Compound 452, 1-[2-chloro-5-(trifluoromethyl)benzoyl]-4-[2-(4-cyclobutylpiperazin-1-yl)-2-oxoethyl]piperazine], for which the inhibition at 4 µM is over 90%. With `O=C(CN1CCN(C(=O)c2cc(C(F)(F)F)cc(C(F)(F)F)c2)CC1)N1CCN(C2CCC2)CC1` [Compound 456, 1-[3,5-bis(trifluoromethyl)benzoyl]-4-[2-(4-cyclobutylpiperazin-1-yl)-2-oxoethyl]piperazine], the inhibition at 4 µM is over 90%. For `O=C(CN1CCN(C(=O)c2cc(-c3ccc(Cl)cc3)oc2C(F)(F)F)CC1)N1CCN(C2CCC2)CC1` [Compound 469, 1-[5-(4-chlorophenyl)-2-(trifluoromethyl)-3-furoyl]-4-[2-(4-cyclobutylpiperazin-1-yl)-2-oxoethyl]piperazine] the value was over 90%. In the case of `Cc1oc(-c2ccc(Cl)cc2)cc1C(=O)N1CCN(CC(=O)N2CCN(C3CCC3)CC2)CC1` [Compound 470, 1-[5-(4-chlorophenyl)-2-methyl-3-furoyl]-4-[2-(4-cyclobutylpiperazin-1-yl)-2-oxoethyl]piperazine], the inhibition at 4 µM is over 90%. With `COc1cc(/C=C/C(=O)N2CCN(CC(=O)N3CCN(C4CCC4)CC3)CC2)ccc1OCc1ccccc1` [Compound 471, 1-{(2E)-3-[4-(benzyloxy)-3-methoxyphenyl]prop-2-enoyl}-4-[2-(4-cyclobutylpiperazin-1-yl)-2-oxoethyl]piperazine], the inhibition at 4 µM is over 90%. As to `CCCc1c(C(=O)N2CCN(CC(=O)N3CCN(C4CCC4)CC3)CC2)cnn1-c1ccc(Cl)cc1` [Compound 472, 1-{[1-(4-chlorophenyl)-5-propyl-1H-pyrazol-4-yl]carbonyl}-4-[2-(4-cyclobutylpiperazin-1-yl)-2-oxoethyl]piperazine], the inhibition at 4 µM is over 90%. `O=C(CN1CCN(C(=O)c2cccnc2Oc2ccc(Cl)cc2)CC1)N1CCN(C2CCC2)CC1` [Compound 473, 1-{[2-(4-chlorophenoxy)pyridin-3-yl]carbonyl}-4-[2-(4-cyclobutylpiperazin-1-yl)-2-oxoethyl]piperazine]: the inhibition at 4 µM was over 90%. As to `CC(C)(C)c1ccc(Oc2ncccc2C(=O)N2CCN(CC(=O)N3CCN(C4CCC4)CC3)CC2)cc1` [Compound 474, 1-{[2-(4-tert-butylphenoxy)pyridin-3-yl]carbonyl}-4-[2-(4-cyclobutylpiperazin-1-yl)-2-oxoethyl]piperazine], the inhibition at 4 µM was over 90%. For `C=CCSc1ncccc1C(=O)N1CCN(CC(=O)N2CCN(C3CCC3)CC2)CC1` [Compound 475, 1-{[2-(allythio)pyridin-3-yl]carbonyl}-4-[2-(4-cyclobutylpiperazin-1-yl)-2-oxoethyl]piperazine] the value was over 90%; for `O=C(Cc1ccccc1OCc1ccccc1)N1CCN(CC(=O)N2CCN(C3CCC3)CC2)CC1` [Compound 476, 1-{[2-(benzyloxy)phenyl]acetyl}-4-[2-(4-cyclobutylpiperazin-1-yl)-2-oxoethyl]piperazine], over 90%; for `CC(CC(=O)N1CCN(CC(=O)N2CCN(C3CCC3)CC2)CC1)Sc1ccc(Cl)cc1` (stereo not shown) [Compound 482, 1-{3-[(4-chlorophenyl)thio]butanoyl}-4-[2-(4-cyclobutylpiperazin-1-yl)-2-oxoethyl]piperazine], over 90%.

With `CCC(C)N1CCN(C(=O)CN2CCN(C(C)=O)CC2)CC1` (stereo not shown) [Compound 486, 1-acetyl-4-[2-(4-sec-butylpiperazin-1-yl)-2-oxoethyl]piperazine], the inhibition at 4 µM is over 90%. For the compound `CCCCn1c(C(=O)N2CCN(CC(=O)N3CCN(C4CCC4)CC3)CC2)cc2ccccc21` [Compound 495, 1-butyl-2-({4-[2-(4-cyclobutylpiperazin-1-yl)-2-oxoethyl]piperazin-1-yl}carbonyl)-1H-indole], the inhibition at 4 µM is over 90%. In the case of `Cc1cc(C(=O)N2CCN(CC(=O)N3CCN(C4CCC4)CC3)CC2)c(C)n1C` [Compound 497, 1-cyclobutyl-4-({4-[(1,2,5-trimethyl-1H-pyrrol-3-yl)carbonyl]piperazin-1-yl}acetyl)piperazine] it was over 90%; in that of `Cc1cc(C(=O)N2CCN(CC(=O)N3CCN(C4CCC4)CC3)CC2)nn1C` [Compound 498, 1-cyclobutyl-4-({4-[(1,5-dimethyl-1H-pyrazol-3-yl)carbonyl]piperazin-1-yl}acetyl)piperazine], over 90%. In the case of `CCn1nc(C)cc1C(=O)N1CCN(CC(=O)N2CCN(C3CCC3)CC2)CC1` [Compound 499, 1-cyclobutyl-4-({4-[(1-ethyl-3-methyl-1H-pyrazol-5-yl)carbonyl]piperazin-1-yl}acetyl)piperazine] it was over 90%. Regarding `O=C(COc1cccc2ccccc12)N1CCN(CC(=O)N2CCN(C3CCC3)CC2)CC1` [Compound 500, 1-cyclobutyl-4-({4-[(1-naphthyloxy)acetyl]piperazin-1-yl}acetyl)piperazine], the inhibition at 4 µM is over 90%. Turning to `COc1cccc(CC(=O)N2CCN(CC(=O)N3CCN(C4CCC4)CC3)CC2)c1OC` [Compound 502, 1-cyclobutyl-4-({4-[(2,3-dimethoxyphenyl)acetyl]piperazin-1-yl}acetyl)piperazine], the inhibition at 4 µM was over 90%. `Cc1cccc(OCC(=O)N2CCN(CC(=O)N3CCN(C4CCC4)CC3)CC2)c1C` [Compound 503, 1-cyclobutyl-4-({4-[(2,3-dimethylphenoxy)acetyl]piperazin-1-yl}acetyl)piperazine]: the inhibition at 4 µM is over 90%. In the case of `O=C(COc1ccc(Cl)cc1Cl)N1CCN(CC(=O)N2CCN(C3CCC3)CC2)CC1` [Compound 504, 1-cyclobutyl-4-({4-[(2,4-dichlorophenoxy)acetyl]piperazin-1-yl}acetyl)piperazine] it was over 90%. For `O=C(Cc1ccc(Cl)cc1Cl)N1CCN(CC(=O)N2CCN(C3CCC3)CC2)CC1` [Compound 505, 1-cyclobutyl-4-({4-[(2,4-dichlorophenyl)acetyl]piperazin-1-yl]acetyl)piperazine] the value was over 90%. Turning to `O=C(Cc1ccc(F)cc1F)N1CCN(CC(=O)N2CCN(C3CCC3)CC2)CC1` [Compound 506, 1-cyclobutyl-4-({4-[(2,4-difluorophenyl)acetyl]piperazin-1-yl}acetyl)piperazine], the inhibition at 4 µM was over 90%. As to `Cc1ccc(OCC(=O)N2CCN(CC(=O)N3CCN(C4CCC4)CC3)CC2)c(C)c1` [Compound 508, 1-cyclobutyl-4-({4-[(2,4-dimethylphenoxy)acetyl]piperazin-1-yl}acetyl)piperazine], the inhibition at 4 µM is over 90%. For `Cc1ccc(C)c(OCC(=O)N2CCN(CC(=O)N3CCN(C4CCC4)CC3)CC2)c1` [Compound 510, 1-cyclobutyl-4-({4-[(2,5-dimethylphenoxy)acetyl]piperazin-1-yl}acetyl)piperazine] the value was over 90%. With `O=C(Cc1c(F)cccc1F)N1CCN(CC(=O)N2CCN(C3CCC3)CC2)CC1` [Compound 512, 1-cyclobutyl-4-({4-[(2,6-difluorophenyl)acetyl]piperazin-1-yl}acetyl)piperazine], the inhibition at 4 µM is over 90%. In the case of `COc1ccc(C(=O)N2CCN(CC(=O)N3CCN(C4CCC4)CC3)CC2)c(OC)n1` [Compound 513, 1-cyclobutyl-4-({4-[(2,6-dimethoxypyridin-3-yl)carbonyl]piperazin-1-yl}acetyl)piperazine] it was over 90%; in that of `O=C(/C=C/c1cccc2ccccc12)N1CCN(CC(=O)N2CCN(C3CCC3)CC2)CC1` [Compound 514, 1-cyclobutyl-4-({4-[(2E)-3-(1-naphthyl)prop-2-enoyl]piperazin-1-yl}acetyl)piperazine], over 90%. With `COc1ccc(/C=C/C(=O)N2CCN(CC(=O)N3CCN(C4CCC4)CC3)CC2)c(OC)c1OC` [Compound 515, 1-cyclobutyl-4-({4-[(2E)-3-(2,3,4-trimethoxyphenyl)prop-2-enoyl]piperazin-1-yl}acetyl)piperazine], the inhibition at 4 µM was over 90%. For `O=C(/C=C/c1cccc(F)c1F)N1CCN(CC(=O)N2CCN(C3CCC3)CC2)CC1` [Compound 516, 1-cyclobutyl-4-({4-[(2E)-3-(2,3-difluorophenyl)prop-2-enoyl]piperazin-1-yl}acetyl)piperazine] the value was over 90%; for `COc1cccc(/C=C/C(=O)N2CCN(CC(=O)N3CCN(C4CCC4)CC3)CC2)c1OC` [Compound 517, 1-cyclobutyl-4-({4-[(2E)-3-(2,3-dimethoxyphenyl)prop-2-enoyl]piperazin-1-yl}acetyl)piperazine], over 90%.

Turning to `COc1cc(OC)c(OC)cc1/C=C/C(=O)N1CCN(CC(=O)N2CCN(C3CCC3)CC2)CC1` [Compound 518, 1-cyclobutyl-4-({4-[(2E)-3-(2,4,5-trimethoxyphenyl)prop-2-enoyl]piperazin-1-yl}acetyl)piperazine], the inhibition at 4 µM was over 90%. Take `O=C(/C=C/c1ccc(Cl)cc1Cl)N1CCN(CC(=O)N2CCN(C3CCC3)CC2)CC1` [Compound 519, 1-cyclobutyl-4-({4-[(2E)-3-(2,4-dichlorophenyl)prop-2-enoyl]piperazin-1-yl}acetyl)piperazine]: the inhibition at 4 µM was over 90%. As to `COc1ccc(/C=C/C(=O)N2CCN(CC(=O)N3CCN(C4CCC4)CC3)CC2)c(OC)c1` [Compound 520, 1-cyclobutyl-4-({4-[(2E)-3-(2,4-dimethoxyphenyl)prop-2-enoyl]piperazin-1-yl}acetyl)piperazine], the inhibition at 4 µM was over 90%. In the case of `COc1ccc(OC)c(/C=C/C(=O)N2CCN(CC(=O)N3CCN(C4CCC4)CC3)CC2)c1` [Compound 521, 1-cyclobutyl-4-({4-[(2E)-3-(2,5-dimethoxyphenyl)prop-2-enoyl]piperazin-1-yl}acetyl)piperazine] it was over 90%.
